{"source": "patent US11633392B2", "about": "(priority 2016, dated 2023)", "key": {"human opioid κ receptor": {"target": "T1, human opioid κ receptor (Homo sapiens, UniProt P41145)", "T1 construct": "host or cells: CHO cells", "T1 sequence (P41145 whole entry)": "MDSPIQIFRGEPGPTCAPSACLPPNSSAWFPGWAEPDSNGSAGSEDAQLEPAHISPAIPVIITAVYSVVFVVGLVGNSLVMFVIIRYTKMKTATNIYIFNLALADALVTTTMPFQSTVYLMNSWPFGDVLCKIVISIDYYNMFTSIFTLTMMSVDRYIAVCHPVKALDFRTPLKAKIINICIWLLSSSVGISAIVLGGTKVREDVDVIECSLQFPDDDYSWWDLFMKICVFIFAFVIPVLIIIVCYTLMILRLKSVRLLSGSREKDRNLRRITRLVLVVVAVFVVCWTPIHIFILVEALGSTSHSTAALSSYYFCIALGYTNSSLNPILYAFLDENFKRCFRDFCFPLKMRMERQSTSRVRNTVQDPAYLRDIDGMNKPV", "test": "Opioid receptor function test (Lance Ultra cAMP Kit), κ receptor", "assay_type": "cell-based", "settings": "maximum reaction not reached; maximum concentration 10 μM; U-69593 = 100%", "method": "Opioid Receptor Function Test\nThe functional activities of the compounds provided by the present invention on the μ, δ, and κ opioid receptors were investigated.\nThe test was performed by using Lance Ultra cAMP Kit (PerkinElmer) according to a method predetermined for the kit. In the evaluation of the agonistic activity, CHO cells expressing each of the human opioid receptors (δ, μ, and κ, accession numbers and catalog numbers are mentioned below) and 10 μM of each test compound were reacted for 30 minutes in an assay buffer (1× HBSS, […], pH 7.4, […] (isobutylmethylxanthine), 7.5% BSA) in the presence of forskolin. Subsequently, the cAMP detection reagent included in the kit was added, and 1 hour afterward, time-resolved fluorescence measurement was performed by using the EnVision plate reader (PerkinElmer). The test compounds and the control drugs (δ: SNC80, μ: DAMGO, κ: U-69593) were evaluated in a concentration range of 10^−12 to 10^−5 M, a dose-response curve of each test compound was obtained from the fluorescence values at 665 nm, and EC50 value and the Emax value were calculated. The Emax value was calculated as a ratio of the maximum reaction of the test compound to the maximum reaction of each control drug, which is taken as 100%.\n• δ: Catalog No. CT4607, Accession No. NM_000911.2 • μ: Catalog No. CT4605, Accession No. NM_000914 • κ: Catalog No. CT4606, Accession No. NM_000912 (ChanTest Corporation)"}, "hERG potassium channel": {"target": "T2, hERG potassium channel (Homo sapiens, UniProt Q12809)", "T2 construct": "host or cells: CHO cells", "T2 sequence (Q12809 whole entry)": "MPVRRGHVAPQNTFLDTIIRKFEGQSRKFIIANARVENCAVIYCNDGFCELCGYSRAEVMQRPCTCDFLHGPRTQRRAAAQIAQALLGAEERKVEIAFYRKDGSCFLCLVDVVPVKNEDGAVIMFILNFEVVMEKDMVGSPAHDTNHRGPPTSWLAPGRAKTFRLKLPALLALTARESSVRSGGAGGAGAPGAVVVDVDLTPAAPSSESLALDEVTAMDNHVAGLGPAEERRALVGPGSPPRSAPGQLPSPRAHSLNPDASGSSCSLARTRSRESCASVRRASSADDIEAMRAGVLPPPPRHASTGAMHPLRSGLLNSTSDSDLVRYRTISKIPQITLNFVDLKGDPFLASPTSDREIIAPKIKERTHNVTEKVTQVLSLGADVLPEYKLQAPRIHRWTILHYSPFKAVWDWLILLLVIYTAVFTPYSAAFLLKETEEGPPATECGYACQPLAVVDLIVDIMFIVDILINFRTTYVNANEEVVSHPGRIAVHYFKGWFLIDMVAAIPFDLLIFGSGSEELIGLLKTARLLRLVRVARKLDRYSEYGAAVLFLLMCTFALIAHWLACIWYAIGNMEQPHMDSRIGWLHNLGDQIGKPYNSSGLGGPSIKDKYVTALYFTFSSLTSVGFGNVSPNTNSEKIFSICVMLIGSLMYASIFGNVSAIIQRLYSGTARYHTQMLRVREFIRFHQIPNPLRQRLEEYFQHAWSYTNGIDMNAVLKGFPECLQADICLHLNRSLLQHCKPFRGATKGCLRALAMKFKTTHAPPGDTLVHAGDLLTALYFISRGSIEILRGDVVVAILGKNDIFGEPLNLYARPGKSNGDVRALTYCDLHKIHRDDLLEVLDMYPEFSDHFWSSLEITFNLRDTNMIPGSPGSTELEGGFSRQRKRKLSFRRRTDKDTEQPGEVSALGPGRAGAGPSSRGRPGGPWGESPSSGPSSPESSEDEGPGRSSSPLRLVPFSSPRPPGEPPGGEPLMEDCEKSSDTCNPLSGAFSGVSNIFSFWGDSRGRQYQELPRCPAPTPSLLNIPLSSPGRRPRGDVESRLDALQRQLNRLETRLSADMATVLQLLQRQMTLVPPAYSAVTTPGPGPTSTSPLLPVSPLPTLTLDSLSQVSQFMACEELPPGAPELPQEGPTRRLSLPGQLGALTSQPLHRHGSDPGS", "test": "hERG potassium channel inhibition test (automatic patch clamp)", "assay_type": "cell-based", "settings": "pH 7.4, hERG-expressing CHO cells, tail current, read-out: hERG channel inhibitory action", "method": "hERG (Human Ether-A-Go-Go-Related Gene) Potassium Channel Inhibition Test\nThe test was performed with Port-a-Patch automatic patch clump apparatus (Nanion Technologies) using hERG channel-stably expressing CHO cells (purchased from Channelopathy Foundation). The membrane potential of the cells was maintained at −80 mV, then there were applied a depolarization pulse at +20 mV for 1.5 seconds, and a following test pulse at −50 mV for 1.5 seconds at a frequency of 1 time per 10 seconds, and the hERG current was confirmed as a tail current induced by the test pulse. The test compound was dissolved in an extracellular fluid (137 mM NaCl, 4 mM KCl, 1.8 mM CaCl2, 1 mM MgCl2, 10 mM D(+)-glucose, 10 mM HEPES, pH 7.4), and the solution was refluxed at room temperature for 5 minutes. The inhibition ratio was obtained from the ratio of the tail current value observed after the compound was applied based on the tail current value observed before the compound was applied, which was taken as 100%."}, "ICR male mice": {"test_system": "ICR male mice", "test": "Reserpine-induced Parkinson's disease model mouse", "assay_type": "in vivo", "settings": "reserpine-treated mice, 10 mg/kg s.c.", "method": "Reserpine-Induced Parkinson's Disease Model Mouse\nICR male mice (5 weeks old, Japan SLC) were obtained, and used after an acclimation period (5 to 12 days).\nPD model was prepared with reference to the report of Hille et al. (Exp. Neurol., 2001, 172:189). It was prepared by intraperitoneally administering reserpine (5 mg/kg) 18 to 24 hours before the start of the test. The test was performed by subcutaneously administering a test compound to each mouse on the day of the test, immediately putting the mouse into a cage for monitoring locomotor activity, and measuring the migration distance over 60 minutes."}, "Metabolic stability test": {"test": "Metabolic stability test", "assay_type": "in vitro ADME", "settings": "liver microsomes; human hepatic microsomes, 0 to 60 minutes; read-out: metabolic clearance CLint", "method": "Human hepatic microsomes and a test substance were reacted for a certain period of time (0 to 60 minutes). The test substance, which was not metabolized in the reaction sample, was measured, and remaining ratio was calculated. The test substance-remaining ratio at the time when the reaction time is 0 hour is taken as 100%. The remaining ratio after incubation was plotted against time as a log-linear plot to obtain a regression line (y=100 e^−kt, k=inclination of straight line: clearance rate constant), and metabolic clearance CLint (mL/min/kg) was calculated by using the following equation. CLint*=k(−min)×52.5(mg MS protein/g liver)×26(g liver/kg)/MS protein (mg MS protein/mL) • *: Davies, B. and Morris T., Physiological parameters in laboratory animals and humans, Pharm. Res., 10(7)1093-1095, 1993 (Test Results)"}, "[1]": {"test_system": "olfactory bulbectomized (OBX) rat", "test": "Hyperemotional reaction inhibition test using olfactory bulbectomized (OBX) rat", "assay_type": "in vivo", "settings": "for hyperemotional reactions of the OBX rats compared with the solvent administration group: maintained until day 14", "from_the_text": "Hyperemotional Reaction Inhibition Test Using Olfactory Bulbectomized (OBX) Rat\nAccording to the method of Saitoh et al. (Saitoh A, Yamada M, Yamada M, Takahashi K, Yamaguchi K, Murasawa H, Nakatani A, Tatsumi Y, Hirose N, and Kamei J: Antidepressant-like effects of the delta-opioid receptor agonist SNC80 ((+)-4-[(alphaR)-alpha-[(2S,5R)-2,5-dimethyl-4-(2-propenyl)-1-piperazinyl]-(3-methoxyphenyl)methyl]-N,N-diethylbenzamide) in an olfactory bulbectomized rat model, Brain Res., 2008, 1208:160-169), OBX rats were prepared by extracting the rat olfactory bulbs, and then breeding the rats in an isolated circumstance. Hyperemotional reaction was evaluated on the day 14 after the surgical operation and before the division into groups, and 2 hours after the administration on the days 1, 4, 7, 10, and 14 of the administration period according to the hyperemotional reaction evaluation criteria prepared by Gomita et al. (Gomita et al., Behavioral pharmacological and electroencephalographical studies of 7-chloro-1-methyl-5-phenyl-1H-1,5-benzodiazepine-2,4-(3H,5H:)-dione (Clobazam), Folia Pharmacologica Japonica, 82, 267 (1983)). The drug was subcutaneously administered once a day continuously over 14 days. As a positive control drug, fluoxetine, which is a selective serotonin reuptake inhibitor (SSRI), was used. As the solvent, a 1% cyclodextrin (CD) was used."}}, "note": "Marks after values point to notes of the source that are not given here.", "data": [{"smiles": "O=C(c1cccc(=O)[nH]1)N1C[C@H]2C[C@@]34CC[C@@H]1[C@@H]2[C@@]31CCN(CC2CC2)[C@@H]4Cc2ccc(O)cc21", "note": "[Example 7, 6-((1S,3aR,5aS,6R,11bR,11cS)-14-(cyclopropylmethyl)-10-hydroxy-2,3,3a,4,5,6,7,11c-octahydro-1H-6,11b-(epiminoethano)-1,5a-methanonaphtho[1,2-e]indole-3-carbonyl)pyridin-2(1H)-one]", "values": [{"measurement": "κ receptor reaction rate at the maximum concentration (reference value, marked *)", "setting": "human opioid κ receptor", "value": "−0.9* %"}, {"measurement": "inhibition at 5 min, 10 µM", "setting": "hERG potassium channel", "value": "< 50", "unit": "%"}, {"measurement": "exploratory behavior", "setting": "ICR male mice; 60 minutes", "value": "significantly increased"}, {"measurement": "standing up behavior", "setting": "ICR male mice; not significant (P=0.16)", "value": "tendency of increase"}, {"measurement": "CLint scaled", "setting": "Metabolic stability test", "value": 5.6, "unit": "mL/min/kg"}, {"measurement": "hyperemotional reactions of the OBX rats compared with the solvent administration group", "setting": "[1]; 0.1 mg/kg s.c. once a day, from the day 4 of the administration period", "value": "significantly reduced"}, {"measurement": "hyperemotional reactions of the OBX rats relative to sham surgery group", "setting": "[1]; 0.1 mg/kg s.c. once a day, on the day 7 of the administration period", "value": "restored the condition even to a level comparable to that of the rats of the sham surgery group"}, {"measurement": "hyperemotional reactions of the OBX rats compared with the solvent administration group", "setting": "[1]; 1 mg/kg s.c. once a day, from the day 1 of the administration period", "value": "significantly reduced"}, {"measurement": "hyperemotional reactions of the OBX rats relative to sham surgery group", "setting": "[1]; 1 mg/kg s.c. once a day, on the day 4 of the administration period", "value": "restored the condition even to a level comparable to that of the rats of the sham surgery group"}]}]}
